Test results: patent US9789101B2, “Methods and compositions for treating microbial infection using pyrroloquinone” (HELPERBY THERAPEUTICS LIMITED, priority 2010, dated 2017)
Counter-ions that a name gives are not always drawn.

Assays:
[1] = system: Mupirocin Resistant S. aureus (24 Passages); assay: Chequerboard analysis of HT00800059 and mupirocin against mupirocin resistant S. aureus (24 passages); type: cell-based, Staphylococcus aureus
Protocol: (§1) Staphylococcus aureus (Oxford); Gram positive; Reference strain.
(§2) Log phase growth of mupirocin resistant Staphylococcus aureus (MSSA) was carried out as follows: • Bacteria were grown in 10 ml of nutrient broth (No. 2, (Oxoid)) overnight at 37° C. with continuous shaking at 120 rpm. The overnight cultures were diluted 1000× with iso-sensitest broth. The cultures were incubated at 37° C. with shaking for 1-2 hours to reach log CFU 6. Viability of the bacteria was estimated by colony forming unit (CFU) counts. From serial 10-fold dilutions of the experimental cultures, 100 μl samples were added to triplicate plates of nutrient agar plates (Oxoid) or blood agar plates (Oxoid). CFUs were counted after incubation of the plates at 37° C. for 24 hours.
(§3) Bacterial cultures: 10 μl of overnight cultures was added to 10 ml of fresh iso-sensitest broth to make the inoculation to 10^6 CFU/ml. 290 μl of the cell suspension was added to each well of the 96 well plate, which was incubated at 37° C. for 24 hours. 300 μl of iso-sensitest broth without bacterial cells were added to wells of the plate as a no bacterial control.
(§4) MIC determination: The optical density of the bacterial cells was read at 405 nm using a plate reader (Bio TEK). The MIC concentration was determined as the lowest concentration of drug which inhibits the bacterial growth.
(§5) Mupirocin was dissolved in DMSO to the stock concentration of 10 mg/ml. HT00800059 was dissolved in H2O to the stock solution 30.07 mg/ml.
(§6) Mupirocin (10 mg/ml) was firstly diluted to 3.84 mg/ml, then further diluted in a serial of 2 fold dilutions. HT00800059 (30.7 mg/ml) was performed in a serial of 2 fold dilutions.
(§7) This was followed by the addition of 280 μl of log phase culture at 10^6 CFU/ml to make the final concentrations of each drug as shown in Table 1 and Table 2.
(§8) In the above table, values in bold text are for HT00800059. Values in plain text are for mupirocin. The numbers shown in each well are μg/ml.
(§9) Incubation of the compounds with the bacterial suspension was carried out for 24 hours. The kill effects of the drug combination were measured by optical density reading at 405 nm with a plate reader (Bio TEK).
(§10) The fractional inhibitory concentration (FIC) index was carried out as following: (MIC of drug A, tested in combination)/(MIC of drug A, tested alone)+(MIC of drug B, tested in combination)/(MIC of drug B, tested alone). The interaction was defined as synergistic if the FIC index was <1, additive if the FIC index was =1 and antagonistic if the FIC index was >1.

[2] = system: log phase (i.e. multiplying) bacteria; conditions: J. Am. Pharm. Assoc. 1956; cited from earlier work
[3] = system: log phase Staphylococcus aureus; assay: Chequerboard analysis of HT00800059 and mupirocin against log phase Staphylococcus aureus; type: cell-based, Staphylococcus aureus (Oxford); conditions: for optical density reading at 405 nm: 24 hours
Protocol: Staphylococcus aureus (Oxford); Gram positive; Reference strain. Log phase growth of […] sensitive Staphylococcus aureus (MSSA) was carried out as follows: • Bacteria were grown in 10 ml of nutrient broth (No. 2, (Oxoid)) overnight at 37° C. with continuous shaking at 120 rpm. […] The cultures were incubated at 37° C. with shaking for 1-2 hours to reach log CFU 6. Viability of the bacteria was estimated by colony forming unit (CFU) counts. From serial 10-fold dilutions of the experimental cultures, 100 μl samples were added to triplicate plates of nutrient agar plates (Oxoid) or blood agar plates (Oxoid). CFUs were counted after incubation of the plates at 37° C. for 24 hours. […] 290 μl of the cell suspension was added to each well of the 96 well plate, which was incubated at 37° C. for 24 hours. […] MIC determination: The optical density of the bacterial cells was read at 405 nm using a plate reader (Bio TEK). The MIC concentration was determined as the lowest concentration of drug which inhibits the bacterial growth. […] HT00800059 was dissolved in H2O to the stock solution 30.07 mg/ml. […] HT00800059 (30.7 mg/ml) was performed in a serial of 2 fold dilutions. This was followed by the addition of 280 μl of log phase culture at 10^6 CFU/ml to make the final concentrations of each drug as shown. In the above table, values in bold text are for HT00800059. Values in plain text are for mupirocin. The numbers shown in each well are μg/ml. Incubation of the compounds with the bacterial suspension was carried out for 24 hours. The kill effects of the drug combination were measured by optical density reading at 405 nm with a plate reader (Bio TEK). The fractional inhibitory concentration (FIC) index was carried out as following: (MIC of drug A, tested in combination)/(MIC of drug A, tested alone)+(MIC of drug B, tested in combination)/(MIC of drug B, tested alone). The interaction was defined as synergistic if the FIC index was <1, additive if the FIC index was =1 and antagonistic if the FIC index was >1.

[4] = system: Mupirocin Resistant S. aureus (28 Passages); assay: Chequerboard analysis of HT00800059 and mupirocin against mupirocin resistant S. aureus (28 passages); type: cell-based, Staphylococcus aureus
Protocol: as §1, §2, §3, §4, §5, §6, §7, §8, §9, §10

[5] = Staphylococcus aureus, read-out: alone MIC

CCCCOc1ccc(C(=O)CCN2CCCCC2)cc1 [HT00800059, dyclonine (1-(4-Butoxyphenyl)-3-(1-piperidinyl)-1-propanone) hydrochloride]
MIC [1, 5]: 512 µg/mL
MIC before combination ([1]; resistant strain 24 passages): 512 µg/mL
MIC post combination ([1]; resistant strain 24 passages): 64 µg/mL
HT00800059 MIC in combination ([1]; with mupirocin 8 μg/ml, 24 passages): 64 µg/mL
activity in vitro against a variety of log phase bacteria [2]: activity
MIC [3, 5]: 512 µg/mL
MIC before combination ([3]; iso-sensitest broth): 512 µg/mL
MIC post combination ([3]; iso-sensitest broth): 64 µg/mL
optical density reading at 405 nm ([3]; iso-sensitest broth, HT00800059 1 μg/ml, mupirocin μg/ml: 1,0.5,0.25,0.125,0.0625,0.03125,0.015625,0): 1.49
optical density reading at 405 nm ([3]; iso-sensitest broth, HT00800059 2 μg/ml, mupirocin μg/ml: 1,0.5,0.25,0.125,0.0625,0.03125,0.015625,0): 1.47
optical density reading at 405 nm ([3]; iso-sensitest broth, HT00800059 4 μg/ml, mupirocin μg/ml: 1,0.5,0.25,0.125,0.0625,0.03125,0.015625,0): 1.46
optical density reading at 405 nm ([3]; iso-sensitest broth, HT00800059 8 μg/ml, mupirocin μg/ml: 1,0.5,0.25,0.125,0.0625,0.03125,0.015625,0): 1.47
optical density reading at 405 nm ([3]; iso-sensitest broth, HT00800059 16 μg/ml, mupirocin μg/ml: 1,0.5,0.25,0.125,0.0625,0.03125,0.015625,0): 1.52
optical density reading at 405 nm ([3]; iso-sensitest broth, HT00800059 32 μg/ml, mupirocin μg/ml: 1,0.5,0.25,0.125,0.0625,0.03125,0.015625,0): 1.55
optical density reading at 405 nm ([3]; iso-sensitest broth, HT00800059 64 μg/ml, mupirocin μg/ml: 1,0.5,0.25,0.125,0.0625,0.03125,0.015625,0): 1.34
optical density reading at 405 nm ([3]; iso-sensitest broth, HT00800059 128 μg/ml, mupirocin μg/ml: 1,0.5,0.25,0.125,0.0625,0.03125,0.015625,0): 1.20
optical density reading at 405 nm ([3]; iso-sensitest broth, HT00800059 256 μg/ml, mupirocin μg/ml: 1,0.5,0.25,0.125,0.0625,0.03125,0.015625,0): 1.09
optical density reading at 405 nm ([3]; iso-sensitest broth, HT00800059 512 μg/ml, mupirocin μg/ml: 1,0.5,0.25,0.125,0.0625,0.03125,0.015625,0): 0.36
optical density reading at 405 nm ([3]; iso-sensitest broth, HT00800059 1024 μg/ml, mupirocin μg/ml: 1,0.5,0.25,0.125,0.0625,0.03125,0.015625,0): 0.36
MIC before combination ([3]; nutrient broth): 512 µg/mL
MIC post combination ([3]; nutrient broth): 64 µg/mL
optical density reading at 405 nm ([3]; nutrient broth, HT00800059 1 μg/ml, mupirocin μg/ml: 1,0.5,0.25,0.125,0.625 [sic],0.03125,0.15625 [sic],0): 0.858
optical density reading at 405 nm ([3]; nutrient broth, HT00800059 2 μg/ml, mupirocin μg/ml: 1,0.5,0.25,0.125,0.625 [sic],0.03125,0.15625 [sic],0): 0.884
optical density reading at 405 nm ([3]; nutrient broth, HT00800059 4 μg/ml, mupirocin μg/ml: 1,0.5,0.25,0.125,0.625 [sic],0.03125,0.15625 [sic],0): 0.885
optical density reading at 405 nm ([3]; nutrient broth, HT00800059 8 μg/ml, mupirocin μg/ml: 1,0.5,0.25,0.125,0.625 [sic],0.03125,0.15625 [sic],0): 0.867
optical density reading at 405 nm ([3]; nutrient broth, HT00800059 16 μg/ml, mupirocin μg/ml: 1,0.5,0.25,0.125,0.625 [sic],0.03125,0.15625 [sic],0): 0.840
optical density reading at 405 nm ([3]; nutrient broth, HT00800059 32 μg/ml, mupirocin μg/ml: 1,0.5,0.25,0.125,0.625 [sic],0.03125,0.15625 [sic],0): 0.759
optical density reading at 405 nm ([3]; nutrient broth, HT00800059 64 μg/ml, mupirocin μg/ml: 1,0.5,0.25,0.125,0.625 [sic],0.03125,0.15625 [sic],0): 0.721
optical density reading at 405 nm ([3]; nutrient broth, HT00800059 128 μg/ml, mupirocin μg/ml: 1,0.5,0.25,0.125,0.625 [sic],0.03125,0.15625 [sic],0): 0.528
optical density reading at 405 nm ([3]; nutrient broth, HT00800059 256 μg/ml, mupirocin μg/ml: 1,0.5,0.25,0.125,0.625 [sic],0.03125,0.15625 [sic],0): 0.524
optical density reading at 405 nm ([3]; nutrient broth, HT00800059 512 μg/ml, mupirocin μg/ml: 1,0.5,0.25,0.125,0.625 [sic],0.03125,0.15625 [sic],0): 0.284
optical density reading at 405 nm ([3]; nutrient broth, HT00800059 1024 μg/ml, mupirocin μg/ml: 1,0.5,0.25,0.125,0.625 [sic],0.03125,0.15625 [sic],0): 0.291
HT00800059 MIC in combination ([3]; with mupirocin 0.125 μg/ml): 64 µg/mL
MIC [4, 5]: 512 µg/mL
MIC before combination ([4]; resistant strain 28 passages): 512 µg/mL
MIC post combination ([4]; resistant strain 28 passages): 64 µg/mL
HT00800059 MIC in combination ([4]; with mupirocin 32 μg/ml, 28 passages): 64 µg/mL
